Consider three compounds from ChEMBL document CHEMBL4725361, “MicroRNA-Based Multitarget Approach for Alzheimer's Disease: Discovery of the First-In-Class Dual Inhibitor of Acetylcholinesterase and MicroRNA-15b Biogenesis” (J Med Chem, 2020).

The target of data set [1] is Cholinesterase (Homo sapiens) (UniProt P06276). Nature of the data set: Inhibition of human blood BChE at 1 to 25 uM using butyrylthiocholine iodide as substrate measured after 20 mins by fluorescence assay. It is filed as tissue-based. Conditions: dose microM 1-25, time 20.0 min.
The test system of data set [2] is SH-SY5Y. Nature of the data set: Protection against amyloid beta oligomer-induced cytotoxicity in human SH-SY5Y cells expressing miRNA-15b assessed as cell viability at 10 uM after 72 hrs by MTT assay relative to control. The class given is functional. Conditions: read-out: Activity. Background: Tetrazolium dyes change colour on reduction, which living cells bring about.

A short description of data set [3]: Apparent permeability across basolateral to apical side in human Caco2 cells after 120 mins by LC-MS/MS analysis. The class given is ADME, cell-based. As to conditions: Caco-2.
Data set [4] can be described thus: Binding affinity to 5'Dabcyl/3'-fluorescein-labelled pre-miRNA-15b (unknown origin) assessed as inhibition of recombinant human dicer-mediated pre-miRNA processing at 10 uM preincubated for 30 mins followed by dicer addition and measured after 5 hrs by FRET assay.
Data set [5] can be described thus: Apparent permeability across apical to basolateral side in human Caco2 cells after 120 mins by LC-MS/MS analysis. It is filed as ADME, cell-based. As to conditions: Caco-2.
A short description of data set [6]: Stability in human serum assessed as parent compound remaining at 100 uM measured after 2 hrs by LC-MS/MS analysis. The class given is ADME, cell-free. Conditions: read-out: Stabilty.
Data set [7] concerns HEL 299. Put plainly: Cytotoxicity against HEL 299 cells measured after 2 days by MTT assay. The class given is cell-based. Conditions: Homo sapiens, HEL 299, 48 h.
Data set [8] is filed under the species Homo sapiens. Put plainly: Inhibition of miRNA-15b biogenesis in human SH-SY5Y cells at 10 uM measured after 96 hrs by Trizol reagent based RT-qPCR analysis relative to control. It is filed as cell-based. (In qPCR the cycle at which signal appears reflects the starting amount.)
Data set [9] can be described thus: Binding affinity to 5'Dabcyl/3'-fluorescein-labelled pre-miRNA-15b (unknown origin) assessed as inhibition of recombinant human dicer-mediated pre-miRNA processing preincubated for 30 mins followed by dicer addition and measured after 5 hrs by FRET assay.
Data set [10] can be described thus: Binding affinity to 5'Dabcyl/3'-fluorescein-labelled pre-miRNA124 (unknown origin) assessed as inhibition of recombinant human dicer-mediated pre-miRNA processing at 10 uM preincubated for 30 mins followed by dicer addition and measured after 5 hrs by FRET assay.
In data set [11] the target is T1, Acetylcholinesterase (Homo sapiens, UniProt P22303). Put plainly: Mixed type inhibition of recombinant human AChE at […] using varying levels of ATC as substrate by Lineweaver-burk plot analysis. Conditions: dose microM 0.5-10.
The nature of data set [12]: Binding affinity to 5'Dabcyl/3'-fluorescein-labelled pre-miRNA212 (unknown origin) assessed as inhibition of recombinant human dicer-mediated pre-miRNA processing at 10 uM preincubated for 30 mins followed by dicer addition and measured after 5 hrs by FRET assay.
Data set [13] can be described thus: Solubility of the compound in pH 7.4 PBS buffer at 100 uM measured after 24 hrs by LC-MS/MS analysis. The class given is physicochemical.
A short description of data set [14]: Permeability of the compound in PBS/EtOH solution measured after 16 hrs by PAMPA. It is filed as ADME. As to conditions: read-out: permeability. (In PAMPA a lipid-coated filter parts donor from acceptor wells.)
The nature of data set [15]: Binding affinity to 5'Dabcyl/3'-fluorescein-labelled pre-miRNA-15b (unknown origin) assessed as inhibition of dicer-mediated pre-miRNA processing […] by FRET assay.
Data set [16] is described as follows: Half life in pH 1.6 simulated gastric fluid at 100 uM by LC-MS/MS analysis. The class given is ADME.
Data set [17] in a line: Half life in Sprague-Dawley rat liver microsomes at 100 uM measured at 20 mins interval by LC-MS/MS analysis. The class given is ADME, Microsome.
Data set [18] can be described thus: Half life in pH 6.5 simulated intestinal fluid at 100 uM by LC-MS/MS analysis. The class given is ADME.
Data set [19] addresses T1, Acetylcholinesterase. Nature of the data set: Inhibition of recombinant human AChE at 10 uM using ATC as substrate by DTNB-reagent based Ellman's method relative to control.
A short description of data set [20]: Binding affinity to miRNA-15b variant (unknown origin) transfected in human SH-SY5Y cells at 0.5 to 10 uM preincubated with cells for 4 hrs followed by transfection and measured after 4 days by renilla luciferase reporter gene assay. The class given is cell-based. Conditions: dose microM 0.5-10, time 4.0 hrs.
Data set [21] can be described thus: Partition coefficient, log P of the compound in pH 7.4 1-octanol/PBS buffer at 38 mg measured after 1 hr by LC-MS/MS analysis. The class given is physicochemical.
For data set [22], the target named is T1, Acetylcholinesterase. Put plainly: Inhibition of recombinant human AChE using ATC as substrate by DTNB-reagent based Ellman's method.
A short description of data set [23]: Binding affinity to 3'-fluorescein-labelled pre-miRNA-15b (unknown origin) measured after 30 mins by FRET assay.
Data set [24] is described as follows: Binding affinity to 5'Dabcyl/3'-fluorescein-labelled pre-miRNA146a (unknown origin) assessed as inhibition of recombinant human dicer-mediated pre-miRNA processing at 10 uM preincubated for 30 mins followed by dicer addition and measured after 5 hrs by FRET assay.

pIC50, pKd: −log10 of the molar value. Converted amounts (≈) assume the structure as drawn. The source made the active and inactive calls. No cut-off for these calls is given here. A value given as a limit tells only on which side of the number the result lay.

T1 sequence (P22303 whole entry): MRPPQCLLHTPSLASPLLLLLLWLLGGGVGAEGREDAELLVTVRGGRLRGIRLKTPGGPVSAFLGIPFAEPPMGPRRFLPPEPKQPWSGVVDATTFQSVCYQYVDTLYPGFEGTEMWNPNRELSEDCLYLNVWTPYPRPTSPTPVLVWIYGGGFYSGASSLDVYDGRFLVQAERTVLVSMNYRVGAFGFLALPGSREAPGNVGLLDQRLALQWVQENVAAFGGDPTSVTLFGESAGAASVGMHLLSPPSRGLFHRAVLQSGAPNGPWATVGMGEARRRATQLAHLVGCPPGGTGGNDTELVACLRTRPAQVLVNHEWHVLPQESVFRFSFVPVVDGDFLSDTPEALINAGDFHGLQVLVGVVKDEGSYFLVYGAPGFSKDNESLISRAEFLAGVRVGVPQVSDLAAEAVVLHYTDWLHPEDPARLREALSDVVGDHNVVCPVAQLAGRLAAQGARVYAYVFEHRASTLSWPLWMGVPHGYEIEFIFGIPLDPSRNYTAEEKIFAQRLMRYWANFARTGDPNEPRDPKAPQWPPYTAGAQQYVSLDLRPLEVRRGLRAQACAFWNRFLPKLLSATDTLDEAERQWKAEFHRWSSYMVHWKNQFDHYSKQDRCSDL
Cholinesterase (Homo sapiens), sequence (P06276 whole entry): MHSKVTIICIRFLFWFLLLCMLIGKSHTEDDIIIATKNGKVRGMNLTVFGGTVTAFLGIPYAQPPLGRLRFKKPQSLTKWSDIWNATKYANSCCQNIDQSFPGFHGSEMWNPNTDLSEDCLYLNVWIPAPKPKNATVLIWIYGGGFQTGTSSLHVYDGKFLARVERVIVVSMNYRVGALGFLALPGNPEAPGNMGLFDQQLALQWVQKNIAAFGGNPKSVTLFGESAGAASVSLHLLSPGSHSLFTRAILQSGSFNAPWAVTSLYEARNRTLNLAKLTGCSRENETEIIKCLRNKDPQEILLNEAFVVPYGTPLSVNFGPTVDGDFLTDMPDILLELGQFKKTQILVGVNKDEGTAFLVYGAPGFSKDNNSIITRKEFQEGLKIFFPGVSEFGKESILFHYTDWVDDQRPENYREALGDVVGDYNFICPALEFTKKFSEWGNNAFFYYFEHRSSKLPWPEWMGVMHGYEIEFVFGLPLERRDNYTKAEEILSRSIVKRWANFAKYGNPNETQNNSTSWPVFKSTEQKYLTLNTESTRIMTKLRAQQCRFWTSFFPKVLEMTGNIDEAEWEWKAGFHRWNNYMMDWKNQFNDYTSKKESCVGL

Regarding `CCN(C)C(=O)Oc1cccc([C@H](C)N(C)C)c1`, the inhibition (commonly the share of the control response that was lost under treatment) in data set [1] is “Active”.

In the case of `COc1cc2c(cc1OC)C(=O)C(CC1CCN(Cc3ccccc3)CC1)C2` (stereo unspecified) [DONEPEZIL], the viability at 10 µM in data set [2] is 45%.

In the case of `COCCn1cnc2cc(NC(=O)c3ccccc3)cc(C(=O)NCc3cc(F)cc(F)c3)c21`, the Papp B→A (as a rule, the apparent permeability from the basolateral to the apical side of a cell layer) at 2 h in [3] worked out at 36.5 ×10⁻⁶ cm/s. Also, the inhibition result in [4], in data set [1] and in data set [11] was “Active” throughout. The viability at 10 µM in data set [2] was 90%. Also, the Papp A→B – broadly, how fast a substance crosses the layer from the apical side – at 2 h in [5] worked out at 16.7 ×10⁻⁶ cm/s. The remaining at 2 h, 100 µM in data set [6] came out at 99.1%. Moreover, the pIC50 (usually −log10 of the IC50, conventionally taken in molar units) was less than 4.30 in data set [7], 6.43 in [9], 6.28 in data set [15] and 6.92 in data set [22]. Also, the inhibition in data set [8] was 55%; in data set [19] it was greater than 90%. Also, the inhibition entry in data set [10], in [12] and in data set [24] was “inactive” throughout. In data set [13], the solubility (in general, how much of the substance goes into solution per volume) at 24 h, 100 µM came out at 34 µM (≈ 15.8 µg/mL). The Papp at 16 h in data set [14] is 30.8 ×10⁻⁶ cm/s. Further, the results for the half-life at 100 µM in data set [16], in data set [17] and in data set [18] were 6.87 h, greater than 5 h and greater than 8.33 h, respectively. Also, the result in [20] was inactive. Also, the logD (in general, the decadic logarithm of the distribution of all forms, ionised or not, between an organic phase and buffer at a given pH) at 1 h in [21] came out at 2.34. In addition, the negative-log Kd (pKd) (as a rule, −log10 of the Kd, conventionally taken in molar units) in data set [23] was 6.09.
